Structures are written as SMILES. pKi: −log10 of the molar value.

As usually defined, the pKi is −log10 of the Ki, conventionally taken in molar units.

For this experiment, the target named is T1, histamine 3 receptor (H3R) (Homo sapiens, UniProt Q9Y5N1).
T1 construct: expressed in transfected cells; host or cells: CHO cells (HR3-CHO cell line), membrane preparation
T1 sequence (Q9Y5N1 whole entry): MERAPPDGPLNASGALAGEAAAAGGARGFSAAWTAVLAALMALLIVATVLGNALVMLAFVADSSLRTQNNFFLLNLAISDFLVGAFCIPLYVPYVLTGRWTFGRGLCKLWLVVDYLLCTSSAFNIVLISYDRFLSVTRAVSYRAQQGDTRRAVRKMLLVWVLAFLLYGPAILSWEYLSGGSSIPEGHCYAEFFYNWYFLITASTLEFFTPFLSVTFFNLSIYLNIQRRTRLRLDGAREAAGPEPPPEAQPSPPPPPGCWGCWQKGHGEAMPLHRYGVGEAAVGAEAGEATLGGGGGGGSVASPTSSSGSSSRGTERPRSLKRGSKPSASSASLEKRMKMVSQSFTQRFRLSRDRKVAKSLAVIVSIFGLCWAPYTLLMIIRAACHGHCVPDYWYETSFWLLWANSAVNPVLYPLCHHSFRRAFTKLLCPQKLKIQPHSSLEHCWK
Briefly: Binding Assay with 3H-(R)α-Methylhistamine (competition binding, membrane of the human HR3-CHO cell line). Conditions: competition binding vs 3H(R)α-Methylhistamine (1 nM = Kd), 1 hour room temperature, Ki calculated from IC50 by Cheng-Prusoff. As to the method: Binding Assay with ^3H—(R)α-Methylhistamine
Saturation binding experiments were performed using HR3-CHO membranes prepared as described in Takahashi, K, Tokita, S., Kotani, H. (2003) J. Pharmacol. Exp. Therapeutics 307, 213-218.
An appropriate amount of membrane (60 to 80 μg protein/well) was incubated with increasing concentrations of ^3H(R)α-Methylhistamine di-hydrochloride (0.10 to 10 nM). Non specific binding was determined using a 200 fold excess of cold (R)α-Methylhistamine dihydrobromide (500 nM final concentration). The incubation was carried out at room temperature (in deep-well plates shaking for three hours). The final volume in each well was 250 μl. The incubation was followed by rapid filtration on GF/B filters (pre-soaked with 100 μl of 0.5% PEI in Tris 50 mM shaking at 200 rpm for two hours). The filtration was made using a cell-harvester and the filter plates were then washed five times with ice cold washing buffer containing 0.5 M NaCl. After harvesting, the plates were dried at 55° C. for 60 min, then we added scintillation fluid (Microscint 40, 40 microl in each well) and the amount of radioactivity on the filter was determined in Packard top-counter after shaking the plates for two hours at 200 rpm at room temperature.
Binding Buffer: 50 mM Tris-HCl pH 7.4 and 5 mM MgCl2×6H2O pH 7.4. Washing Buffer: 50 mM Tris-HCl pH 7.4 and 5 mM MgCl2×6H2O and 0.5 M NaCl pH 7.4.
Indirect measurement of affinity of H3R inverse agonists: twelve increasing concentrations (ranging from 10 μM to 0.3 nM) of the selected compounds were always tested in competition binding experiments using membrane of the human HR3-CHO cell line. An appropriate amount of protein, e.g. approximately 500 cpm binding of RAMH at Kd, were incubated for 1 hour at room temperature in 250 μl final volume in 96-well plates in presence of ^3H(R)α-Methylhistamine (1 nM final concentration=Kd). […]
All compounds were tested at a single concentration in duplicates. […] Ki's were calculated from IC50 based on Cheng-Prusoff equation (Cheng, Y, Prusoff, W H (1973) Biochem Pharmacol 22, 3099-3108).
With `O=C(Nc1ccnc(N2CCN(C3CCCC3)CC2)c1)N1CCC(F)CC1` [Example 66, 4-fluoro-piperidine-1-carboxylic acid [2-(4-cyclopentyl-piperazin-1-yl)-pyridin-4-yl]-amide], the negative-log Ki (pKi) is 7.31.
As to `O=C(Nc1cc(N2CCN(C3CCCC3)CC2)ccn1)c1cccc(F)c1` [Example 48, N-[4-(4-cyclopentyl-piperazin-1-yl)-pyridin-2-yl]-3-fluoro-benzamide], the negative-log Ki (pKi) was 7.12.
Under `O=C(Nc1ccnc(N2CCN(C3CCCC3)CC2)c1)C1CCCCC1` [Example 11, cyclohexanecarboxylic acid [2-(4-cyclopentyl-piperazin-1-yl)-pyridin-4-yl]-amide] stands 8.07.

Source of the values: patent US7612076B2, “Piperazinyl-pyridine derivatives” (Hoffman-La Roche Inc., priority 2004, dated 2009).
